# Bridge positions count the residues as written; N and C are the ends. Square brackets hold non-standard residues; d marks the D form. Peptide text beside a SMILES is read from it. * marks the point of attachment. ξ: configuration not given here. dBip = N[C@H](Cc1ccc(-c2ccccc2)cc1)C(=O)O; dPhe(4-Br) = N[C@H](Cc1ccc(Br)cc1)C(=O)O; Gly(octyl) = CCCCCCCC[C@H](N)C(=O)O; Octanoyl(6-Me) = CCC(C)CCCCC(=O)*; Thr(3ξ) = CC(O)[C@H](N)C(=O)O; Octanoyl = CCCCCCCC(=O)*; Dab = NCC[C@H](N)C(=O)O; X6 = CCCCCCC(CCN)C(=O)*; X18 = CCCCC(CCN)C(=O)*
# Columns and labels:
# Type in all cases: cell-based
# [1] = tested on: Acinetobacter baumannii
# Outline: (§1)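 Susceptibility testing covered up to nine strains of each Gram-negative pathogen, among them resistant strains and strains with elevated MICs to Polymyxin. Values are MICs in μg/mL.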
# [2] = tested on: Escherichia coli
# Outline: as §1
# [3] = tested on: Klebsiella pneumoniae
# Outline: as §1
# [4] = tested on: Pseudomonas aeruginosa
# Outline: as §1
# [5] = tested on: HK-2 cells
# From the text: Values are reported relative to Polymyxin B.
# [6] = tested on: Escherichia coli, Pseudomonas aeruginosa, Klebsiella pneumoniae and Acinetobacter baumannii; assay: Susceptibility testing, comparisons in words across the Gram negative pathogens; settings: for activity against polymyxin resistant strains: versus comparator compound
# Procedure: To evaluate the potency and spectrum of the compounds, susceptibility testing was performed against up to nine strains of each of the Gram negative pathogens, Escherichia coli, Pseudomonas aeruginosa, Klebsiella pneumoniae and Acinetobacter baumannii.
Structure (SMILES),MIC A. baumanii 053 [1],MIC A. baumanii 056 [1],MIC A. baumanii ATCC BAA-747 [1],MIC E. coli 058 [2],MIC E. coli 059 [2],MIC E. coli 060 [2],MIC E. coli 061 [2],MIC E. coli ATCC 25922 [2],MIC K. pneumoniae 063 [3],MIC K. pneumoniae 064 [3],MIC K. pneumoniae 065 [3],MIC K. pneumoniae 066 [3],MIC K. pneumoniae 067 [3],MIC K. pneumoniae ATCC 4352 [3],MIC P. aeruginosa 068 [4],MIC P. aeruginosa 070 [4],MIC P. aeruginosa ATCC 27853 [4],HK-2 IC50 [5],MIC A. baumanii NCTC 13424 [1],MIC K. pneumoniae ATCC 13882 [3],further results
"CC(C)CC1CNCC(C(=O)N[C@H](C(=O)N[C@@H](CN)C(=O)N[C@H]2CCNC(=O)[C@H]([C@@H](C)O)NC(=O)[C@H](CCN)NC(=O)[C@H](CCN)NC(=O)[C@H](CC(C)C)NC(=O)[C@@H](Cc3ccc(-c4ccccc4)cc3)NC(=O)[C@H](CCN)NC2=O)C(C)O)C1 (single isomer, unassigned; isomer 2) [Example 4, (trans-5-(isobutyl-piperidine)-3-carbonyl L-Thr-L-Dap-polymyxin [D-(4-phenyl)Phe]-6]heptapeptide. Isomer 2]",2 µg/mL,0.5 µg/mL,0.5 µg/mL,0.5 µg/mL,0.5 µg/mL,0.5 µg/mL,2 µg/mL,0.5 µg/mL,4 µg/mL,2 µg/mL,1 µg/mL,1 µg/mL,8 µg/mL,0.5 µg/mL,1 µg/mL,2 µg/mL,1 µg/mL,32 µg/mL,–,–,activity against polymyxin resistant strains [6]: significantly improves of activity against resistant strains
"CCC(C)CCCCC(=O)N[C@@H](CCN)C(=O)N[C@H](C(=O)N[C@@H](CCN)C(=O)N[C@H]1CCNC(=O)[C@H]([C@@H](C)O)NC(=O)[C@H](CCN)NC(=O)[C@H](CCN)NC(=O)[C@H](CC(C)C)NC(=O)[C@@H](Cc2ccc(Br)cc2)NC(=O)[C@H](CCN)NC1=O)C(C)O (stereo partly drawn) [Example 2, Polymyxin B[D-(4-bromoPhe)]-6]] ({Octanoyl(6-Me)}-[Dab][Thr(3ξ)][Dab][Dab][Dab][dPhe(4-Br)]L[Dab][Dab]T; lactam 4-C)",16 µg/mL,4 µg/mL,2 µg/mL,2 µg/mL,1 µg/mL,2 µg/mL,4 µg/mL,2 µg/mL,16 µg/mL,2 µg/mL,0.5 µg/mL,4 µg/mL,16 µg/mL,1 µg/mL,2 µg/mL,4 µg/mL,1 µg/mL,–,–,–,MIC K. pneumoniae 062 [3]: 8 µg/mL; activity against polymyxin resistant strains [6]: enhances activity against polymyxin resistant strains
"CCC(C)CCCCC(=O)N[C@@H](CCN)C(=O)N[C@H](C(=O)N[C@@H](CCN)C(=O)N[C@H]1CCNC(=O)[C@H]([C@@H](C)O)NC(=O)[C@H](CCN)NC(=O)[C@H](CCN)NC(=O)[C@H](CC(C)C)NC(=O)[C@@H](Cc2ccc(-c3ccccc3)cc2)NC(=O)[C@H](CCN)NC1=O)C(C)O (stereo partly shown) [Example C3, reference compound] ({Octanoyl(6-Me)}-[Dab][Thr(3ξ)][Dab][Dab][Dab][dBip]L[Dab][Dab]T; lactam 4-C)",16 µg/mL,16 µg/mL,1 µg/mL,2 µg/mL,1 µg/mL,4 µg/mL,8 µg/mL,0.5 µg/mL,8 µg/mL,4 µg/mL,0.5 µg/mL,4 µg/mL,32 µg/mL,0.5 µg/mL,2 µg/mL,4 µg/mL,1 µg/mL,3 µg/mL,–,–,MIC K. pneumoniae 062 [3]: 32 µg/mL
"CCCCC(CCN)C(=O)N[C@H](C(=O)N[C@@H](CCN)C(=O)N[C@H]1CCNC(=O)[C@H]([C@@H](C)O)NC(=O)[C@H](CCN)NC(=O)[C@H](CCN)NC(=O)[C@H](CC(C)C)NC(=O)[C@@H](Cc2ccccc2)NC(=O)[C@H](CCN)NC1=O)C(C)O (stereo partly shown) [Example C4, 2-(2-Aminoethyl) hexanoyl polymyxin B nonapeptide, reference compound] (X18-[Thr(3ξ)][Dab][Dab][Dab][dF]L[Dab][Dab]T; lactam 3-C)",–,–,1 µg/mL,>64 µg/mL,–,–,–,1.0 µg/mL,–,–,>64 µg/mL,–,–,0.25 µg/mL,–,–,1 µg/mL,–,0.5 µg/mL,1 µg/mL,MIC P. aeruginosa CCUG 59347 [4]: 2 µg/mL; activity [6]: only moderate activity
"CCCCCCC(CCN)C(=O)N[C@H](C(=O)N[C@@H](CCN)C(=O)N[C@H]1CCNC(=O)[C@H]([C@@H](C)O)NC(=O)[C@H](CCN)NC(=O)[C@H](CCN)NC(=O)[C@H](CC(C)C)NC(=O)[C@@H](Cc2ccccc2)NC(=O)[C@H](CCN)NC1=O)C(C)O (stereo partly shown) [Example C5, 2-(2-Aminoethyl) octanoyl polymyxin B nonapeptide, reference compound] (X6-[Thr(3ξ)][Dab][Dab][Dab][dF]L[Dab][Dab]T; lactam 3-C)",>64 µg/mL,16 µg/mL,0.125 µg/mL,2 µg/mL,–,–,16 µg/mL,0.06 µg/mL,8 µg/mL,–,1 µg/mL,–,–,0.06 µg/mL,8 µg/mL,32 µg/mL,0.125 µg/mL,29 µg/mL,0.25 µg/mL,0.125 µg/mL,MIC E. coli NCTC 9001 [2]: 0.03 µg/mL; MIC P. aeruginosa CCUG 59347 [4]: 0.5 µg/mL
"CCCCCCCC[C@@H]1NC(=O)[C@@H](Cc2ccccc2)NC(=O)[C@H](CCN)NC(=O)[C@@H](NC(=O)[C@H](CCN)NC(=O)[C@@H](NC(=O)[C@H](CCN)NC(=O)CCCCCCC)[C@@H](C)O)CCNC(=O)[C@H]([C@@H](C)O)NC(=O)[C@H](CCN)NC(=O)[C@H](CCN)NC1=O [Example C7, octanoyl-Dab-Thr-Dab-Cy[Dab-Dab-D-Phe-L-OctGly-Dab-Dab-Thr], reference compound] (Octanoyl-[Dab]T[Dab][Dab][Dab][dF][Gly(octyl)][Dab][Dab]T; lactam 4-C)",–,–,1 µg/mL,2 µg/mL,–,–,–,1 µg/mL,–,–,2 µg/mL,–,–,–,–,–,0.5 µg/mL,–,1 µg/mL,1 µg/mL,MIC A. baumannii CA053 [1]: 4 µg/mL; MIC A. baumannii CA056 [1]: 4 µg/mL; MIC E. coli CA059 [2]: 2 µg/mL; MIC E. coli CA060 [2]: 2 µg/mL; MIC E. coli CA061 [2]: 4 µg/mL; MIC K. pneumoniae CA062 [3]: 16 µg/mL; MIC K. pneumoniae CA063 [3]: 8 µg/mL; MIC K. pneumoniae CA064 [3]: 4 µg/mL; MIC K. pneumoniae CA066 [3]: 2 µg/mL; MIC K. pneumoniae CA067 [3]: 64 µg/mL; MIC K. pneumoniae N655 [3]: 8 µg/mL; MIC P. aeruginosa CA068 [4]: 4 µg/mL; MIC P. aeruginosa CA070 [4]: 2 µg/mL; MIC P. aeruginosa CCUG 59347 [4]: 2 µg/mL; activity against polymyxin-susceptible strains ([6]; versus compounds in a more negative A Log P range): less active against polymyxin-susceptible strains

# From patent US12146004B2, “Polymyxin compounds and uses thereof” (priority 2014, dated 2024)
